Test results published in patent publication US20110224245A1, “Treatment Of Neurological Disorders Using Huperzine” (President and Fellows of Harvard College, priority 2008, published 2011).
Entries after “also recorded” stand apart in the source; their conditions may differ.

Experiments:
[1] = system: Subcutaneous Metrazol (pentylenetetrazol; SCMET) seizures; assay: Subcutaneous Metrazol (SCMET / scPTZ) model, mice i.p.; format: in vivo; details: (MJ) animals displaying myoclonic jerks
Protocol: (§1) Huperzine A was evaluated in the Maximal Electroshock (MES) and Subcutaneous Metrazol (pentylenetetrazol; SCMET) models of generalized tonic-clonic and myoclonic seizures, respectively in mice and rats.
(§2) The Subcutaneous Metrazole (SCMET) model is also an art-recognized test for therapeutic agents for epilepsy, and in particular, is useful for investigating petite mal seizures. A Metrazole dose of 85 mg/kg was administered subcutaneously to induce seizures. Huperzine was then administered and the animals observed.
(§3) Huperzine A was either administered in a soluble form (SOL) or as a suspension (SUS). […] To produce the suspension, huperzine A was ground to a powder using a mortar and pestle, and the powder mixed with methyl cellulose. This mixture was then sonicated to produce a suspension that was subsequently administered to mice in the weight range of 19.0 to 25.5 g. The data are presented as the number of mice showing an effect (N) from the full number of mice (F) tested. […] At four hours post administration, all three mice were protected (i.e., 100% were protected).
Male, 18-25 g CF1 mice and 100-125 g Sprague-Dawley rats (Charles River Laboratories, Wilmington, Mass.) were used as the experimental animals. Animals were pretreated intraperitoneally (i.p.) with increasing doses of HupA and tested at various times after administration for protection against tonic extension (MES test), minimal clonic (s.c. PTZ test), limbic (6 Hz), or secondarily generalized (kindled rat) seizures. Seizure testing was carried out as follows. […] The ability of the test substance to prevent seizures induced by 6 Hz corneal stimulation (32 mA, 3 sec duration) was assessed at various times after i.p. administration of 1 mg/kg HupA For assessment of hippocampal kindling, HupA (1 mg/kg, i.p.) was administered. The ability of the compound to block the expression of hippocampal kindled seizures was evaluated using the rapid hippocampal kindling model (White et al., 2002). […]

mice [2] = assay: Toxicity Model (TOX), rotorod / minimal motor impairment, mice i.p.; format: in vivo; details: for Comment (6 Hz test, 22 mA) / Comment (6 Hz test, 32 mA): 1 h
Source text: To investigate the neurotoxicity levels of the huperzine compounds, the Toxicity Model (TOX) using a rotorod is employed. The animals (e.g., mice) were trained to stand on an accelerating rotorod rotating at 10 rev min^−1 with a diameter of 3.2 cm. The trained animal can be given the huperzine compound at various doses and the effect of huperzine on their motor skills can be determined. The dose at which the animals fell off the rotorod is the toxic dose.
The neurotoxicity of huperzine was tested in the rotorod test. The mice were trained to stand on an accelerating rotorod rotating at 10 rev min^−1 with a diameter of 3.2 cm. The trained animals were given the huperzine at various doses and the effect of huperzine on their motor skills was determined. The dose at which the animals fell off the rotorod was the toxic dose.
as §3, with “protected). […]” for “protected).”
(§4) Minimal toxicity was identified in mice by the rotorod procedure.

mice [3] = assay: Toxicity / minimal motor impairment after ICV administration (6 Hz screen); format: in vivo; details: for Toxic (animals toxic over number tested): 0.5 h
Source text: Doses listed as pmol/5 microliter injection volume for ICV. TD50 at 0.5 hrs: 36.15 (9.35-121.74) 1.57+/−0.51.
as §4

[4] = Solubility in methyl cellulose solvent; format: physicochemical
Source text: as §3

[5] = system: Subcutaneous Metrazol (pentylenetetrazol; SCMET) seizures; assay: Subcutaneous Metrazol (SCMET / scPTZ) model, rats, oral; format: in vivo
Protocol: as §1, §2
Peak anticonvulsant activity was observed one-hour after p.o. administration of 1 mg/kg.

SMILES: C/C=C1\[C@H]2C=C(C)C[C@]1(N)c1ccc(=O)[nH]c1C2 [Huperzine A]
- SCMET N/F (mice showing an effect / mice tested) ([1]; 1 mg/kg i.p., SOL, 0.5 h): 3/5 (MJ)^1
- SCMET N/F (mice showing an effect / mice tested) ([1]; 3 mg/kg i.p., SUS, 0.5 h): 1/1 (MJ)
- SCMET N/F (mice showing an effect / mice tested) ([1]; 10 mg/kg i.p., SUS, 4.0 h): 1/1 (MJ)
- TOX N/F (mice showing an effect / mice tested) (mice [2]; 0.1 mg/kg i.p., SOL, 4.0 h): 0/4
- Comment (6 Hz test, 22 mA) (mice [2]; 0.18 mg/kg IP): Minimal motor impairment
- Comment (6 Hz test, 32 mA) (mice [2]; 0.2 mg/kg IP): Tremors
- Comment (6 Hz test, 32 mA) (mice [2]; 0.3 mg/kg IP): Tremors; also recorded: Minimal motor impairment
- TOX N/F (mice showing an effect / mice tested) (mice [2]; 0.3 mg/kg i.p., SOL, 4.0 h): 0/4
- Comment (6 Hz test, 22 mA) (mice [2]; 0.35 mg/kg IP): Minimal motor impairment
- Comment (6 Hz test, 32 mA) (mice [2]; 0.42 mg/kg IP): Tremors; also recorded: Minimal motor impairment
- Comment (6 Hz test, 22 mA) (mice [2]; 0.7 mg/kg IP): Tremors; also recorded: Minimal motor impairment
- Comment (6 Hz test, 32 mA) (mice [2]; 0.83 mg/kg IP): Tremors; also recorded: Minimal motor impairment
- TOX N/F (mice showing an effect / mice tested) (mice [2]; 1 mg/kg i.p., SOL, 0.5 h, (T) animals displaying tremors): 4/4 (T)^2
- TOX N/F (mice showing an effect / mice tested) (mice [2]; 1 mg/kg i.p., SOL, 4.0 h, (T) animals displaying tremors): 2/2 (T)
- TOX N/F (mice showing an effect / mice tested) (mice [2]; 3 mg/kg i.p., SUS, 0.5 h): 8/8
- TOX N/F (mice showing an effect / mice tested) (mice [2]; 3 mg/kg i.p., SUS, 4.0 h, (T) animals displaying tremors): 4/4 (T)
- TOX N/F (mice showing an effect / mice tested) (mice [2]; 10 mg/kg i.p., SUS, 0.5 h): 4/4
- TOX N/F (mice showing an effect / mice tested) (mice [2]; 10 mg/kg i.p., SUS, 4.0 h, (T) animals displaying tremors): 2/2 (T)
- TOX N/F (mice showing an effect / mice tested) (mice [2]; 30 mg/kg i.p., SUS, 0.5 h, (D) death of animals): 4/4 (D)^3
- TOX N/F (mice showing an effect / mice tested) (mice [2]; 100 mg/kg i.p., SUS, 0.5 h, (D) death of animals): 8/8 (D)
- TOX N/F (mice showing an effect / mice tested) (mice [2]; 300 mg/kg i.p., SUS, 0.5 h, (D) death of animals): 4/4 (D)
- behavioral impairment at anticonvulsant doses (mice [2]; mice): marked motor impairment
- body temperature (mice [3]): Dose-dependent drop in body temperatures
- Toxic (animals toxic over number tested) (mice [3]; dose 0.01 (pmol/5 microliter; head mg/kg)): 0/8 Toxic
- Toxic (animals toxic over number tested) (mice [3]; dose 1 (pmol/5 microliter; head mg/kg)): 0/8 Toxic
- Toxic (animals toxic over number tested) (mice [3]; dose 10 (pmol/5 microliter; head mg/kg)): 2/8 toxic
- Toxic (animals toxic over number tested) (mice [3]; dose 100 (pmol/5 microliter; head mg/kg)): 6/8 Toxic
- Toxic (animals toxic over number tested) (mice [3]; dose 1000 (pmol/5 microliter; head mg/kg)): 4/4 toxic
- TD50 (mice [3]; 0.5 hrs, (95% interval in brackets)): 36.15 (9.35-121.74) pmol/5 microliter injection volume
- Response comment (mice [3]; dose 10, 0.25 h): Minimal motor impairment
- Response comment (mice [3]; dose 10, 0.5 h): Minimal motor impairment
- Response comment (mice [3]; dose 100, 0.25 h): Minimal motor impairment
- Response comment (mice [3]; dose 100, 0.5 h): Minimal motor impairment
- Response comment (mice [3]; dose 100, 1 h): Minimal motor impairment
- solubility in the methyl cellulose solvent ([4]; at concentrations of 0.1-0.3 mg/kg): readily soluble
- solubility in the methyl cellulose solvent ([4]; at higher concentrations (administered as suspension)): not soluble
- time of peak anticonvulsant activity ([5]; after p.o. administration of 1 mg/kg): one-hour
- time of peak activity post administration ([5]; rats, 1 mg/kg oral): between 30 minutes and two hours
